Legend:
Type in all cases: cell-based
[1] = system: dengue virus type 2 in Huh7 hepatoblastoma cells; assay: Dengue Virus-2 Huh-7 EC50 (Example W); conditions: MOI of 0.07, CPE, neutral red dye, read-out: Dengue Virus-2 Huh-7 EC50 (nM) (per Ex. W)
Description: (§1) Huh7 hepatoblastoma cells were seeded onto 96-well plates and incubated at 37° C. with 5% CO2 overnight. The plates were seeded at a cell concentration that will yield >70% confluent monolayers in each well after overnight incubation. Eight 3-fold serial dilutions of compounds were diluted in test media (MEM supplemented with 2% FBS and 50 μg/mL gentamicin). The highest test compound concentration was 50 μg/mL. 100 μL of each concentration was added to 5 test wells on the 96-well plate. Of these 5 test wells, 3 wells of each dilution were infected with dengue virus type 2, diluted in test media (approximately 2000 CCID50 per well for an MOI of 0.07). Test medium (100 μL) with no virus was added to 2 wells to represent the uninfected cytotoxicity controls. Six additional infected wells received 100 μL media alone as untreated virus controls. Further, 100 μL of media alone was added to 6 uninfected wells to serve as uninfected, untreated controls. Cultures were incubated at 37° C.+5% CO2 until >80% CPE is observed. After cytopathic effect (CPE) is observed microscopically, 0.011% neutral red dye was added for approximately 2 hours. The neutral red dye was removed and wells were rinsed once with PBS to remove residual, unincorporated dye. A 50:50 Sorensen citrate buffer/ethanol solution was added and incubated at room temperature for >30 minutes with agitation, followed by measurement of neutral red dye using a spectrophotometer at 540 nm. The resulting optical density measurement was converted to percent signal of the infected, untreated cell control normalizing to virus controls. EC50 and CC50 values were determined by linear regression analysis.

in vitro = conditions: human
Description: as §1

[2] = system: CAN97-83-GFP1 (A2a) hMPV in H1-HeLa cells; assay: hMPV H1-Hela EC50, anti-nucleoprotein ELISA (Example X); conditions: human metapneumovirus, 96 h, read-out: hMPV H1-Hela EC50 (nM) (per Ex. X)
Description: The human metapneumoavirus (hMPV) anti-viral assay is an anti-nucleoprotein ELISA performed in infected H1-HeLa cells. H1-HeLa cells were maintained in Dulbecco's Modified Eagle's Medium with high glucose (Gibco, Cat #: 11995073) supplemented with 10% FBS (HyClone, Cat #: SH303396.03), 100 units/mL penicillin and 100 μg/mL streptomycin (Gibco, Cat #: 15140122). One day before infection, H1-HeLa cells were seeded into 96-well plates (Corning, Cat. #: 3903) at 0.1 mL/well at 1.5×10^5 cells/mL in Opti-MEM (Gibco, Cat #: 31985070) supplemented with 2% FBS, and were incubated at 37° C. in a 100% humid atmosphere containing 5% (v/v) CO2 overnight. On the next day, CAN97-83-GFP1 (A2a) hMPV was diluted in Opti-MEM medium containing 200 μg/mL CaCl2) and 2 μg/mL TPCK treated trypsin and distributed to the 96-well plates at 0.1 mL/well for an MOI=0.1. Test compounds were distributed to each well using a HP D300e digital dispenser with a final volume of 200 µL/well. After the plates were centrifuged at 700 g for one hour at room temperature, they were maintained in a humidified chamber at 37-C with 5% (v/v) CO2 for 96 hours. After the incubation, the medium was removed, and the plates were fixed with 0.1 mL/well 1% formaldehyde for 15 min at room temperature. The fixative was removed, the plates were air dried for 30-60 minutes, and then permeabilized with 0.1 mL/well 0.5% Triton X-100 in PBS for five minutes at room temperature. Following permeabilization, the plates were washed once with 0.1 mL/well blocking buffer consisting of 10% FBS (HyClone, Cat #: SH303396.03), 5% dry milk (AmericanBio, Cat #: AB10109-01000), and 0.1% Tween 20 (EMD Millipore, Cat #655204) in PBS. The plates were blocked with 0.1 mL/well blocking buffer for 60 minutes at 37° C. afterward. The blocking buffer was removed and 0.05 mL/well human metapneumovirus nucleocapsid antibody (Sigma, Cat #MAB80121) diluted 1:500 in Blocking buffer was added and incubated for two hours at 37-C. The plates were then washed with 0.2 mL/well 0.1% Tween 20/PBS five times, followed by addition of 0.05 mL/well of horseradish peroxidase (HRP) conjugated goat anti-mouse IgG antibody (Fisher Scientific, Cat #501077607) at 1:2000 dilution in the blocking buffer. After one-hour incubation at 37-C, plates were washed five times with 0.2 mL/well 0.1% tween 20 in PBS. The HRP signals were developed by adding 0.1 mL/well of TMB reagent (Thermo Scientific, Cat #: ENN301) and incubating at room until the positive control was apparent. At that point, the reaction was stopped by adding 0.1 mL/well TMB stop solution (SeraCare, Cat #: 5150-0021). The absorbance was measured at 450 nm with an EnVision plate reader. The relative absorbance was calculated by normalizing the absorbance of the compound-treated groups to that of the DMSO-treated groups (set as 100%). EC50 values were calculated using a nonlinear four parameter variable slope regression model.

Question: Which EC50 [1] does the source give for `CCCCCCCCCCCCCCCCCC[C@@H](COP(=O)(O)OC[C@@]1(C#N)O[C@@H](c2ccc3c(N)ncnn23)[C@H](O)[C@@H]1O)OCc1cc(F)cc(C#N)c1` [Compound 37, ((2R,3S,4R)-5-(4-aminopyrrolo[2,1-f][1,2,4]triazin-7-yl)-2-cyano-3,4-dihydroxytetrahydrofuran-2-yl)methyl ((S)-2-((3-cyano-5-fluorobenzyl)oxy)icosyl) hydrogen phosphate] here?
Answer: 11000 nM

Question: And the CC50 (in vitro)?
Answer: 16 µM

Question: For `CCCCCCCCCCCCCCCCCCOC[C@H](COP(=O)(O)OC[C@@]1(C#N)O[C@@H](c2ccc3c(N)ncnn23)[C@H](O)[C@@H]1O)OCc1cccc(C#N)n1` [Compound 68, ((2R,3S,4R)-5-(4-aminopyrrolo[2,1-f][1,2,4]triazin-7-yl)-2-cyano-3,4-dihydroxytetrahydrofuran-2-yl)methyl ((R)-2-((6-cyanopyridin-2-yl)methoxy)-3-(octadecyloxy)propyl) hydrogen phosphate], which EC50 [2] is on record?
Answer: 214 nM

Question: For `CCCCCCCCCCCCCCOC[C@H](COP(=O)(O)OC[C@@]1(C#N)O[C@@H](c2ccc3c(N)ncnn23)[C@H](O)[C@@H]1O)OCc1ccc(C#N)cc1F` [Compound 75, ((2R,3S,4R,5S)-5-(4-aminopyrrolo[2,1-f][1,2,4]triazin-7-yl)-2-cyano-3,4-dihydroxytetrahydrofuran-2-yl)methyl ((R)-2-((4-cyano-2-fluorobenzyl)oxy)-3-(tetradecyloxy)propyl) hydrogen phosphate], which EC50 [1] is on record?
Answer: 23000 nM

Question: And the CC50 (in vitro)?
Answer: > 50 µM

Question: What does the source list for `CCCCCCCCCCCCCCCCC[C@@H](COP(=O)(O)OC[C@@]1(C#N)O[C@@H](c2ccc3c(N)ncnn23)[C@H](O)[C@@H]1O)OCc1cc(F)cc(C#N)c1` [Compound 74, ((2R,3S,4R)-5-(4-aminopyrrolo[2,1-f][1,2,4]triazin-7-yl)-2-cyano-3,4-dihydroxytetrahydrofuran-2-yl)methyl ((S)-2-((3-cyano-5-fluorobenzyl)oxy)nonadecyl) hydrogen phosphate]?
Answer: EC50 [1]: 10000 nM; CC50 (in vitro): 15 µM

Question: Which EC50 [1] does the source give for `CCCCCCCCCCCCCCCCCOC[C@H](COP(=O)(O)OC[C@@]1(C#N)O[C@@H](c2ccc3c(N)ncnn23)[C@H](O)[C@@H]1O)OCc1cc(F)cc(C#N)c1` [Compound 53, ((2R,3S,4R,5S)-5-(4-aminopyrrolo[2,1-f][1,2,4]triazin-7-yl)-2-cyano-3,4-dihydroxytetrahydrofuran-2-yl)methyl ((R)-2-((3-cyano-5-fluorobenzyl)oxy)-3-(heptadecyloxy)propyl) hydrogen phosphate] here?
Answer: 9900 nM

Question: And the CC50 (in vitro)?
Answer: 16 µM

Question: For `CCCCCCCCCCCCCCCCCCCC[C@H](COP(=O)(O)OC[C@@]1(C#N)O[C@@H](c2ccc3c(N)ncnn23)[C@H](O)[C@@H]1O)Oc1cccc(C#N)c1` [Compound 51, ((2R,3S,4R,5S)-5-(4-aminopyrrolo[2,1-f][1,2,4]triazin-7-yl)-2-cyano-3,4-dihydroxytetrahydrofuran-2-yl)methyl ((R)-2-(3-cyanophenoxy)docosyl) hydrogen phosphate], which EC50 [1] is on record?
Answer: 11000 nM

Question: And the CC50 (in vitro)?
Answer: 21 µM

Question: For `CCCCCCCCCCCCCCCCCCOC[C@H](COP(=O)(O)OC[C@@]1(C#N)O[C@@H](c2ccc3c(N)ncnn23)[C@H](O)[C@@H]1O)OCc1ccc(C#N)cc1OC` [Compound 73, ((2R,3S,4R)-5-(4-aminopyrrolo[2,1-f][1,2,4]triazin-7-yl)-2-cyano-3,4-dihydroxytetrahydrofuran-2-yl)methyl ((R)-2-((4-cyano-2-methoxybenzyl)oxy)-3-(octadecyloxy)propyl) hydrogen phosphate], which EC50 [1] is on record?
Answer: 9500 nM

Question: And the CC50 (in vitro)?
Answer: 19 µM

Question: With `CCCCCCCCCCCCCCCCC[C@H](COP(=O)(O)OC[C@@]1(C#N)O[C@@H](c2ccc3c(N)ncnn23)[C@H](O)[C@@H]1O)OCc1cc(Cl)cc(C#N)c1` [Compound 76, ((2R,3S,4R)-5-(4-aminopyrrolo[2,1-f][1,2,4]triazin-7-yl)-2-cyano-3,4-dihydroxytetrahydrofuran-2-yl)methyl ((R)-2-((3-chloro-5-cyanobenzyl)oxy)nonadecyl) hydrogen phosphate] as the compound, how does the EC50 [2] read?
Answer: 517 nM

Question: With `CCCCCCCCCCCCCCCCCCC[C@H](COP(=O)(O)OC[C@@]1(C#N)O[C@@H](c2ccc3c(N)ncnn23)[C@H](O)[C@@H]1O)Oc1cc(OC)c(C#N)c(OC)c1` [Compound 39, ((2R,3S,4R,5S)-5-(4-aminopyrrolo[2,1-f][1,2,4]triazin-7-yl)-2-cyano-3,4-dihydroxytetrahydrofuran-2-yl)methyl ((R)-2-(4-cyano-3,5-dimethoxyphenoxy)henicosyl) hydrogen phosphate] as the compound, how does the EC50 [1] read?
Answer: 9100 nM

Question: What about the CC50 (in vitro) of the same compound?
Answer: 14 µM

Question: Which EC50 [2] does the source give for `CCCCCCCCCCCCCCC[C@H](COP(=O)(O)OC[C@@]1(C#N)O[C@@H](c2ccc3c(N)ncnn23)[C@H](O)[C@@H]1O)OCc1cc(F)cc(C#N)c1` [Compound 80, ((2R,3S,4R,5S)-5-(4-aminopyrrolo[2,1-f][1,2,4]triazin-7-yl)-2-cyano-3,4-dihydroxytetrahydrofuran-2-yl)methyl ((R)-2-((3-cyano-5-fluorobenzyl)oxy)heptadecyl) hydrogen phosphate] here?
Answer: 668 nM

Question: What does the source list for `CCCCCCCCCCCCCCCCCCOC[C@H](COP(=O)(O)OC[C@@]1(C#N)O[C@@H](c2ccc3c(N)ncnn23)[C@H](O)[C@@H]1O)OCc1ccc(C#N)c(-n2cncn2)c1` [Compound 16, ((2R,3S,4R,5S)-5-(4-aminopyrrolo[2,1-f][1,2,4]triazin-7-yl)-2-cyano-3,4-dihydroxytetrahydrofuran-2-yl)methyl ((R)-2-((4-cyano-3-(1H-1,2,4-triazol-1-yl)benzyl)oxy)-3-(octadecyloxy)propyl) hydrogen phosphate]?
Answer: EC50 [1]: 3900 nM; CC50 (in vitro): 24 µM

Question: With `CCCCCCCCCCCCCCCCCCCC[C@@H](COP(=O)(O)OC[C@@]1(C#N)O[C@@H](c2ccc3c(N)ncnn23)[C@H](O)[C@@H]1O)OCc1cc(F)cc(C#N)c1` [Compound 70, ((2R,3S,4R)-5-(4-aminopyrrolo[2,1-f][1,2,4]triazin-7-yl)-2-cyano-3,4-dihydroxytetrahydrofuran-2-yl)methyl ((S)-2-((3-cyano-5-fluorobenzyl)oxy)docosyl) hydrogen phosphate] as the compound, how does the EC50 [1] read?
Answer: 12000 nM

Question: And the CC50 (in vitro)?
Answer: 12 µM

Question: With `CCCCCCCCCCCCCCCCCCOC[C@H](COP(=O)(O)OC[C@@]1(C#N)O[C@@H](c2ccc3c(N)ncnn23)[C@H](O)[C@@H]1O)OCc1ccc(C#N)nc1` [Compound 19, ((2R,3S,4R,5S)-5-(4-aminopyrrolo[2,1-f][1,2,4]triazin-7-yl)-2-cyano-3,4-dihydroxytetrahydrofuran-2-yl)methyl ((R)-2-((6-cyanopyridin-3-yl)methoxy)-3-(octadecyloxy)propyl) hydrogen phosphate] as the compound, how does the EC50 [1] read?
Answer: 6600 nM

Question: And the CC50 (in vitro)?
Answer: 25 µM
